ChEMBL document CHEMBL1909046, “DrugMatrix in vitro pharmacology data”

How the values were obtained:
[1] = target: T1, Amine oxidase [flavin-containing] A (Homo sapiens, UniProt P21397); test: DRUGMATRIX: Monoamine Oxidase MAO-A enzyme inhibition (substrate: Kynuramine); parameters: species or system BTI-TN-5B1-4; settings: bti-tn-5b1-4; Not Active = under 50% inhibition at 10 µM
T1 sequence (P21397 whole entry): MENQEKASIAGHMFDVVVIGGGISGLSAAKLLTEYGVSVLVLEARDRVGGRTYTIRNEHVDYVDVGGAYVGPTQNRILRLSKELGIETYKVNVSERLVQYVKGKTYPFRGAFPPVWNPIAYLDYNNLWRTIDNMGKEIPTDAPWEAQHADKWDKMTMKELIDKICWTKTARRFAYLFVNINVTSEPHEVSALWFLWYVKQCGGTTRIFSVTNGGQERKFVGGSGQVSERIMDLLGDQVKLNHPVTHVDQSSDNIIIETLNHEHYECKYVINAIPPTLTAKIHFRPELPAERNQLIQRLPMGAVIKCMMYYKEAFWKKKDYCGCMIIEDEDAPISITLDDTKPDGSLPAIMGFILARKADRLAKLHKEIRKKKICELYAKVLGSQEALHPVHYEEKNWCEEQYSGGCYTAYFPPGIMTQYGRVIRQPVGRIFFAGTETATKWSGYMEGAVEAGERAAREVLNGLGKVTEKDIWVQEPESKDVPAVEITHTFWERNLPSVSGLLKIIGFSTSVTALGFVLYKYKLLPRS

[2] = target: Prostaglandin G/H synthase 1 (Homo sapiens, UniProt P23219); test: biochemical; type: tissue-based, Platelet; settings: platelet;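 note: inhibition of COX-1 enzyme activity, with arachidonic acid supplied as substrate; in other assays of this panel Not Active means under 50% inhibition at 10 µM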
Prostaglandin G/H synthase 1, sequence (P23219 whole entry): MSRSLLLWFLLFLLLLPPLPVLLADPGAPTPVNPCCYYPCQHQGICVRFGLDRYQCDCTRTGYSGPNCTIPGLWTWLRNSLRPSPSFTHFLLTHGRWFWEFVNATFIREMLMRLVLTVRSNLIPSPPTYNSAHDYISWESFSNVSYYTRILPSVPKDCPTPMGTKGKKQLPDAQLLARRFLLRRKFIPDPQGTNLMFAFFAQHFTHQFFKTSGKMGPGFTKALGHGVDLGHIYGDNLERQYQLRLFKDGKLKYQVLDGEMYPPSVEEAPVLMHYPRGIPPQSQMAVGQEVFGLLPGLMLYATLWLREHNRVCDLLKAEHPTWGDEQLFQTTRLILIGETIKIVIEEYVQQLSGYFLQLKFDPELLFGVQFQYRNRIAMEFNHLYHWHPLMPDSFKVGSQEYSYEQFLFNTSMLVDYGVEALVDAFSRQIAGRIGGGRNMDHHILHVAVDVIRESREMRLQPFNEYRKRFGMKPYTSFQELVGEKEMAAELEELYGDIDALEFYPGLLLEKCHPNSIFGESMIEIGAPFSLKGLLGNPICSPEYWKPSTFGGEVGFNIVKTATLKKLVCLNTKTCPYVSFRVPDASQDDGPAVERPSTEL

[3] = DRUGMATRIX: Glutamate, Kainate radioligand binding (ligand: [3H] Kainic acid); type: cell membranes, Rattus norvegicus, Wistar, Brain, Membrane; settings: Not Active = under 50% inhibition at 10 µM
[4] = target: Mitogen-activated protein kinase 1 (Homo sapiens, UniProt P28482); test: DRUGMATRIX: Protein Serine/Threonine Kinase, ERK2 enzyme inhibition (substrate: Myelin Basic Protein); parameters: species or system Escherichia coli; settings: Not Active = under 50% inhibition at 10 µM
Mitogen-activated protein kinase 1, sequence (P28482 whole entry): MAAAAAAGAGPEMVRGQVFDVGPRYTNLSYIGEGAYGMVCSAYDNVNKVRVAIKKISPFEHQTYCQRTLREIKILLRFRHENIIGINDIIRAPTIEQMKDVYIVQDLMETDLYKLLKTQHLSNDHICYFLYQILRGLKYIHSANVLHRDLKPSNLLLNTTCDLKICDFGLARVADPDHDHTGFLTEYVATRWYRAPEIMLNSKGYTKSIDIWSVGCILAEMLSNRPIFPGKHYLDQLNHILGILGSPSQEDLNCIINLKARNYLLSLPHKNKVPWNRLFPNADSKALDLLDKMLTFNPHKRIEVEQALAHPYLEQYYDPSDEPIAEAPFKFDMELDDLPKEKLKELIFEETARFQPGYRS

[5] = target: T2, Nitric oxide synthase, inducible (Mus musculus, UniProt P29477); parameters: species or system Escherichia coli;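 note: inhibition of iNOS enzyme activity measured with L-arginine as substrate; in other assays of this panel Not Active means under 50% inhibition at 10 µM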
T2 sequence (P29477 whole entry): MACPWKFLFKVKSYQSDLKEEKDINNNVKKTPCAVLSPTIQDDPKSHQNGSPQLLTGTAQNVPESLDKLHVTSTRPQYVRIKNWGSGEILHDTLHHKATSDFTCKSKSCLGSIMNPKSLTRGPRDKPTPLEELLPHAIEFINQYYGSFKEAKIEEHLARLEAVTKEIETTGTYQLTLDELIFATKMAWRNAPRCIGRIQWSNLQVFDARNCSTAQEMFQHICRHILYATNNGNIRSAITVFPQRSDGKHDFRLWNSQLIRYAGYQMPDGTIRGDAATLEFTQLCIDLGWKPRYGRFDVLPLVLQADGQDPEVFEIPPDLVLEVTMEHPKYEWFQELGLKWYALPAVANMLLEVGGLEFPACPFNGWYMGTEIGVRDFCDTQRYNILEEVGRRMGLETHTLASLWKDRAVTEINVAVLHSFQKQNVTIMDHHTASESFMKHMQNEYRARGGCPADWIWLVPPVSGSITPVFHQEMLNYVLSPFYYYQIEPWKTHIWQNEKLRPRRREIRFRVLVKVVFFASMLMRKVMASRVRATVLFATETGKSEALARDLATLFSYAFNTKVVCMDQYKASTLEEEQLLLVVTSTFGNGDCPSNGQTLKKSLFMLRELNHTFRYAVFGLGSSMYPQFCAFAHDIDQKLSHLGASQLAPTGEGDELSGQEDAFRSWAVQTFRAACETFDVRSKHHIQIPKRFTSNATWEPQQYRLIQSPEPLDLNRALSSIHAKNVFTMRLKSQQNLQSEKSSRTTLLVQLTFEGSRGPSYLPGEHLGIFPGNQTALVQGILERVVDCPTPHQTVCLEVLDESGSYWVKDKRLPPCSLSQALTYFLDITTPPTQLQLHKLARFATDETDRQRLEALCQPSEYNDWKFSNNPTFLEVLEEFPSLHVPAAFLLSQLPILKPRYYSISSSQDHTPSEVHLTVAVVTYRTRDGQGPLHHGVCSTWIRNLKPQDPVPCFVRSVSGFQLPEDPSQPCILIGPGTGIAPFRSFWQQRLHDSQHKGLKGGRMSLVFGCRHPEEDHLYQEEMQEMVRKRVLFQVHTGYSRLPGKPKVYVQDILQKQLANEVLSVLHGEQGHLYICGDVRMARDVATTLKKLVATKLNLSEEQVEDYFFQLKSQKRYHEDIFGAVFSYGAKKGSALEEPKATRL

[6] = target: Vascular endothelial growth factor receptor 1 (Homo sapiens, UniProt P17948); test: biochemical; type: cell-based, HUVEC; settings: huvec; note: in other assays of this panel Not Active means under 50% inhibition at 10 µM
Vascular endothelial growth factor receptor 1, sequence (P17948 whole entry): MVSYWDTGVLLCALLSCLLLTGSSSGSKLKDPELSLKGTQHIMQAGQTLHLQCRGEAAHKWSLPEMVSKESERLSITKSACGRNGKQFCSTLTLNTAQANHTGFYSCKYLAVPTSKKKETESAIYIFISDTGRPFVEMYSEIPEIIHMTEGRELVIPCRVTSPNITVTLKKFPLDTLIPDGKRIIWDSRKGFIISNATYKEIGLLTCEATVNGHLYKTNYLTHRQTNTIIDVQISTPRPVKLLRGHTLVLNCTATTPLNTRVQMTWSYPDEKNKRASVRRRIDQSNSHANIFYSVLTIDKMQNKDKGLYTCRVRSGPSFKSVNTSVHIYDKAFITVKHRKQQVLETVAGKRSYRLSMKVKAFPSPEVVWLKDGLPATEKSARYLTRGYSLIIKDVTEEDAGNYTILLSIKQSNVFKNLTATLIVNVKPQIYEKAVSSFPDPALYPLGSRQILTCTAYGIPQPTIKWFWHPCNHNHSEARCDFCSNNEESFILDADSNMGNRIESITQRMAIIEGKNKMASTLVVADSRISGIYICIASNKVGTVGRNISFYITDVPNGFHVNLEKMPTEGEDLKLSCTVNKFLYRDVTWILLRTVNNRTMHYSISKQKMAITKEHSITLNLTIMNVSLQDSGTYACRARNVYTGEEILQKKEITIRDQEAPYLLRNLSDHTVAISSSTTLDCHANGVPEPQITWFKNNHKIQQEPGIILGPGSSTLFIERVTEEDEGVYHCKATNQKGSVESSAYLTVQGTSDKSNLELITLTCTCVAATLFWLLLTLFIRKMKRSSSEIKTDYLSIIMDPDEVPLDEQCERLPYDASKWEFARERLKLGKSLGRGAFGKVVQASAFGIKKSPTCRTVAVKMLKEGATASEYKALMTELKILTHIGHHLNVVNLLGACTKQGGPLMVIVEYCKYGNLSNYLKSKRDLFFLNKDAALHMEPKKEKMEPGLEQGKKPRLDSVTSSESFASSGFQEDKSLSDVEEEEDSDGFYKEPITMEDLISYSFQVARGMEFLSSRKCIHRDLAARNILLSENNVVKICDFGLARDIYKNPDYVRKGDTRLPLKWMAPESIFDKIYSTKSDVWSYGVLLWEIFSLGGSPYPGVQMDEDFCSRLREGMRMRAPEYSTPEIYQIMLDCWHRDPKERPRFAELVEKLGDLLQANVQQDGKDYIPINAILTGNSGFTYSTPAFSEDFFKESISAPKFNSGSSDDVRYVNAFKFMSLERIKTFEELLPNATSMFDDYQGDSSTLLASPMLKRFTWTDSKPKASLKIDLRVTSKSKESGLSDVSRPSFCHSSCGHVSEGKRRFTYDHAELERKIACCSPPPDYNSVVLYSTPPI

[7] = target: Mitogen-activated protein kinase 14 (Homo sapiens, UniProt Q16539); parameters: species or system Escherichia coli;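 note: inhibition of p38alpha enzyme activity in a biochemical kinase assay, with myelin basic protein serving as substrate; in other assays of this panel Not Active means under 50% inhibition at 10 µM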
Mitogen-activated protein kinase 14, sequence (Q16539 whole entry): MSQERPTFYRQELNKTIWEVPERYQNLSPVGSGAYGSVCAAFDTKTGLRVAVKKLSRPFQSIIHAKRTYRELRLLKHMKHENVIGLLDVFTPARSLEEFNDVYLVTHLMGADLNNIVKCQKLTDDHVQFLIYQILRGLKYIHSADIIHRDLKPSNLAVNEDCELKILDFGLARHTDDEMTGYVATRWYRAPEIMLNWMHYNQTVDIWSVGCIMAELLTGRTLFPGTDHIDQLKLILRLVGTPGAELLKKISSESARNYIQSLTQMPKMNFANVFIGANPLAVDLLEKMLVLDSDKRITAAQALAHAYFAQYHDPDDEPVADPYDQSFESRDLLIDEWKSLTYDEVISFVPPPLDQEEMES

Row | Compound | IC50 [1] | IC50 [2] | IC50 [3] | Ki [3] | IC50 [4] | IC50 [5] | IC50 [6] | IC50 [7] | Ki [1] | Ki [2] | Ki [4] | Ki [5] | Ki [6] | Ki [7] | IC50 ([4]; read-out: IC50) [µM] | IC50 ([7]; read-out: IC50) [µM]
1 | C=C(CC)C(=O)c1ccc(OCC(=O)O)c(Cl)c1Cl [ETHACRYNIC ACID] | Not Active | Not Active | Not Active | Not Active | Not Active | Not Active | Not Active | Not Active | – | – | – | – | – | – | – | –
2 | CC(C(=O)O)c1ccc(-c2ccccc2)c(F)c1 (configuration not stated) [FLURBIPROFEN] | Not Active | – | Not Active | Not Active | Not Active | Not Active | Not Active | Not Active | – | – | – | – | – | – | – | –
3 | COc1ccccc1OCC(O)COC(N)=O (configuration not stated) [METHOCARBAMOL] | Not Active | Not Active | Not Active | Not Active | Not Active | Not Active | Not Active | Not Active | – | – | – | – | – | – | – | –
4 | CC(C(=O)O)c1ccc(CC2CCCC2=O)cc1 (configuration not stated) [LOXOPROFEN] | Not Active | Not Active | Not Active | Not Active | Not Active | Not Active | Not Active | Not Active | – | – | – | – | – | – | – | –
5 | CCCCC1C(=O)N(c2ccccc2)N(c2ccccc2)C1=O [PHENYLBUTAZONE] | Not Active | Not Active | Not Active | Not Active | Not Active | Not Active | Not Active | Not Active | – | – | – | – | – | – | – | –
6 | CCN[C@@H](C)Cc1cccc(C(F)(F)F)c1 [DEXFENFLURAMINE] | Not Active | Not Active | Not Active | Not Active | Not Active | Not Active | Not Active | Not Active | – | – | – | – | – | – | – | –
7 | COc1ccccc1OCC(O)CO (configuration not stated) [GUAIFENESIN] | Not Active | Not Active | Not Active | Not Active | Not Active | Not Active | Not Active | Not Active | – | – | – | – | – | – | – | –
8 | CCC(=O)O[C@H]1[C@H](O[C@@H]2[C@@H](C)[C@H](O[C@H]3C[C@@](C)(OC)[C@@H](O)[C@H](C)O3)[C@@H](C)C(=O)O[C@H](CC)[C@@](C)(O)[C@H](O)[C@@H](C)C(=O)[C@H](C)C[C@@]2(C)O)O[C@H](C)C[C@@H]1N(C)C [ERYTHROMYCIN PROPIONATE] | Not Active | Not Active | Not Active | Not Active | Not Active | Not Active | Not Active | Not Active | – | – | – | – | – | – | – | –
9 | C=C1/C(=C\C=C2/CCC[C@]3(C)[C@@H]([C@H](C)CCCC(C)C)CC[C@@H]23)C[C@@H](O)C[C@@H]1O [ALFACALCIDOL] | Not Active | Not Active | Not Active | Not Active | Not Active | Not Active | Not Active | Not Active | – | – | – | – | – | – | – | –
10 | CS(=O)(=O)OCCCCOS(C)(=O)=O [BUSULFAN] | Not Active | Not Active | Not Active | Not Active | Not Active | Not Active | Not Active | Not Active | – | – | – | – | – | – | – | –
11 | C[C@]12CCC(=O)C=C1CC[C@@H]1[C@@H]2[C@@H](O)C[C@@]2(C)[C@H]1CC[C@]2(O)C(=O)CO [HYDROCORTISONE] | Not Active | Not Active | Not Active | Not Active | Not Active | Not Active | Not Active | Not Active | – | – | – | – | – | – | – | –
12 | POLYVINYL ALCOHOL | Not Active | Not Active | Not Active | Not Active | Not Active | Not Active | Not Active | Not Active | Not Active | Not Active | Not Active | Not Active | Not Active | Not Active | – | –
13 | COBALT(II) ACETYLACETONATE | Not Active | Not Active | Not Active | Not Active | Not Active | Not Active | Not Active | Not Active | Not Active | Not Active | Not Active | Not Active | Not Active | Not Active | – | –
14 | Nc1nc(N)nc(NC2CC2)n1 [CYROMAZINE] | Not Active | Not Active | Not Active | Not Active | Not Active | Not Active | Not Active | Not Active | – | – | – | – | – | – | – | –
15 | CN(C(=O)CCCOc1ccc2[nH]c(=O)ccc2c1)C1CCCCC1 [CILOSTAMIDE] | Not Active | Not Active | Not Active | Not Active | Not Active | Not Active | Not Active | Not Active | – | – | – | – | – | – | – | –
16 | CC(C)(Oc1ccc(C2CC2(Cl)Cl)cc1)C(=O)O (configuration not stated) [CIPROFIBRATE] | Not Active | Not Active | Not Active | Not Active | Not Active | Not Active | Not Active | Not Active | – | – | – | – | – | – | – | –
17 | Cc1cn[nH]c1 [FOMEPIZOLE] | Not Active | Not Active | Not Active | Not Active | Not Active | Not Active | Not Active | Not Active | – | – | – | – | – | – | – | –
18 | CCc1oc2ccccc2c1C(=O)c1cc(Br)c(O)c(Br)c1 [BENZBROMARONE] | Not Active | Not Active | Not Active | Not Active | – | Not Active | Not Active | – | – | – | – | – | – | – | 1.95 | 1.24
19 | CN1C[C@H](C(=O)N[C@]2(C)O[C@@]3(O)[C@@H]4CCCN4C(=O)[C@H](Cc4ccccc4)N3C2=O)C[C@@H]2c3cccc4[nH]cc(c34)C[C@H]21 [DIHYDROERGOTAMINE] | Not Active | Not Active | Not Active | Not Active | Not Active | Not Active | Not Active | Not Active | – | – | – | – | – | – | – | –
20 | CNC(=C[N+](=O)[O-])NCCSCc1csc(CN(C)C)n1 [NIZATIDINE] | Not Active | Not Active | Not Active | Not Active | Not Active | Not Active | Not Active | Not Active | – | – | – | – | – | – | – | –
21 | Cc1cnc(C(=O)NCCc2ccc(S(=O)(=O)NC(=O)NC3CCCCC3)cc2)cn1 [GLIPIZIDE] | Not Active | Not Active | Not Active | Not Active | – | – | Not Active | – | – | – | – | – | – | – | – | –
22 | COc1ccc2cc(CCC(C)=O)ccc2c1 [NABUMETONE] | – | Not Active | Not Active | Not Active | Not Active | Not Active | Not Active | Not Active | – | – | – | – | – | – | – | –
23 | Cc1c(N(C)CS(=O)(=O)[O-])c(=O)n(-c2ccccc2)n1C.[Na+] [DIPYRONE SODIUM] | Not Active | Not Active | Not Active | Not Active | – | Not Active | Not Active | Not Active | – | – | – | – | – | – | – | –
24 | C[C@H](C(=O)O)c1cccc(C(=O)c2ccccc2)c1 [DEXKETOPROFEN] | Not Active | – | Not Active | Not Active | Not Active | Not Active | Not Active | Not Active | – | – | – | – | – | – | – | –
